Laboratory results reported in PubChem BioAssay (NCI).
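These data come from cells grown in 96-well plates and exposed to compound for 48 hours at five concentrations. GI50 = concentration required for 50% inhibition of growth. TGI denotes the concentration required for complete inhibition of growth.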

Tests used:
Assay in all cases: growth of human tumour cells (NCI), 48 h
BT-549 breast = system: BT-549 breast
MDA-MB-435 = system: MDA-MB-435
NCI-H23 lung = system: NCI-H23 lung
SNB-75 CNS = system: SNB-75 CNS
T-47D breast = system: T-47D breast
SK-MEL-28 melanoma = system: SK-MEL-28 melanoma
786-0 renal = system: 786-0 renal
SNB-19 CNS = system: SNB-19 CNS
CCRF-CEM leukemia = system: CCRF-CEM leukemia
SK-OV-3 ovarian = system: SK-OV-3 ovarian
SF-539 CNS = system: SF-539 CNS
OVCAR-3 ovarian = system: OVCAR-3 ovarian
UO-31 renal = system: UO-31 renal
RPMI-8226 leukemia = system: RPMI-8226 leukemia
A549 NSCLC = system: A549 NSCLC
HOP-92 NSCLC = system: HOP-92 NSCLC
HL-60(TB) leukemia = system: HL-60(TB) leukemia
SR leukemia = system: SR leukemia
IGROV1 ovarian = system: IGROV1 ovarian
EKVX NSCLC = system: EKVX NSCLC
SK-MEL-2 melanoma = system: SK-MEL-2 melanoma
HCT-116 colon = system: HCT-116 colon
DU-145 prostate = system: DU-145 prostate
SF-295 CNS = system: SF-295 CNS
COLO 205 colon = system: COLO 205 colon
SK-MEL-5 melanoma = system: SK-MEL-5 melanoma
OVCAR-4 ovarian = system: OVCAR-4 ovarian
NCI-H522 lung = system: NCI-H522 lung
TK-10 renal = system: TK-10 renal
HS 578T breast = system: HS 578T breast
RXF 393 renal = system: RXF 393 renal
ACHN renal = system: ACHN renal
K-562 leukemia = system: K-562 leukemia
HCT-15 colon = system: HCT-15 colon
MCF7 breast = system: MCF7 breast
HT29 colon = system: HT29 colon
OVCAR-5 ovarian = system: OVCAR-5 ovarian
NCI-H460 lung = system: NCI-H460 lung
NCI/ADR-RES ovarian = system: NCI/ADR-RES ovarian
SW-620 colon = system: SW-620 colon
KM12 colon = system: KM12 colon
M14 melanoma = system: M14 melanoma
NCI-H226 lung = system: NCI-H226 lung
OVCAR-8 ovarian = system: OVCAR-8 ovarian
A498 renal = system: A498 renal
U251 CNS = system: U251 CNS
PC-3 prostate = system: PC-3 prostate
CAKI-1 renal = system: CAKI-1 renal
SF-268 CNS = system: SF-268 CNS
HOP-62 NSCLC = system: HOP-62 NSCLC
SN12C renal = system: SN12C renal
HCC-2998 colon = system: HCC-2998 colon
LOX IMVI melanoma = system: LOX IMVI melanoma
UACC-62 melanoma = system: UACC-62 melanoma
MALME-3M melanoma = system: MALME-3M melanoma
MDA-MB-231 breast = system: MDA-MB-231 breast
MOLT-4 leukemia = system: MOLT-4 leukemia

Which results are given for `CCCCCCCC(=O)SCC/C=C/[C@@H]1CC(=O)NCc2nc(co2)C2=N[C@@](C)(CS2)C(=O)N[C@@H](C(C)C)C(=O)O1`?
GI50 (BT-549 breast): 127 nM; TGI (BT-549 breast): > 50000 nM; GI50 (MDA-MB-435): 14.8 nM; TGI (MDA-MB-435): 1630 nM; GI50 (NCI-H23 lung): 41.1 nM; GI50 (SNB-75 CNS): 10.8 nM; TGI (SNB-75 CNS): > 50000 nM; GI50 (T-47D breast): 31.2 nM; TGI (T-47D breast): 201 nM; GI50 (SK-MEL-28 melanoma): 13.8 nM; TGI (SK-MEL-28 melanoma): 936 nM; GI50 (786-0 renal): 45.6 nM; TGI (786-0 renal): > 50000 nM; GI50 (SNB-19 CNS): 115 nM; TGI (SNB-19 CNS): > 50000 nM; GI50 (CCRF-CEM leukemia): 29.6 nM; TGI (CCRF-CEM leukemia): > 50000 nM; GI50 (SK-OV-3 ovarian): 10.7 nM; TGI (SK-OV-3 ovarian): 101 nM; GI50 (SF-539 CNS): 18.2 nM; TGI (SF-539 CNS): > 50000 nM; GI50 (OVCAR-3 ovarian): 24.1 nM; TGI (OVCAR-3 ovarian): 156 nM; GI50 (UO-31 renal): 43 nM; TGI (UO-31 renal): 487 nM; GI50 (RPMI-8226 leukemia): 90 nM; TGI (RPMI-8226 leukemia): > 50000 nM; GI50 (A549 NSCLC): 18.4 nM; TGI (A549 NSCLC): 1910 nM; GI50 (HOP-92 NSCLC): 14.7 nM; TGI (HOP-92 NSCLC): 111 nM; GI50 (HL-60(TB) leukemia): 29.4 nM; TGI (HL-60(TB) leukemia): 31800 nM; GI50 (SR leukemia): 16.4 nM; TGI (SR leukemia): > 50000 nM; GI50 (IGROV1 ovarian): 11.4 nM; TGI (IGROV1 ovarian): 163 nM; GI50 (EKVX NSCLC): 34.4 nM; TGI (EKVX NSCLC): > 50000 nM; GI50 (SK-MEL-2 melanoma): 13.2 nM; TGI (SK-MEL-2 melanoma): 331 nM; GI50 (HCT-116 colon): 12.6 nM; TGI (HCT-116 colon): 1140 nM; GI50 (DU-145 prostate): 12.3 nM; TGI (DU-145 prostate): > 50000 nM; GI50 (SF-295 CNS): 26.4 nM; TGI (SF-295 CNS): 282 nM; GI50 (COLO 205 colon): 34.2 nM; TGI (COLO 205 colon): 141 nM; GI50 (SK-MEL-5 melanoma): 17.9 nM; TGI (SK-MEL-5 melanoma): 77.6 nM; GI50 (OVCAR-4 ovarian): 27.6 nM; TGI (OVCAR-4 ovarian): > 50000 nM; GI50 (NCI-H522 lung): 8.08 nM; TGI (NCI-H522 lung): 121 nM; GI50 (TK-10 renal): 11.7 nM; TGI (TK-10 renal): 126 nM; GI50 (HS 578T breast): 12.5 nM; GI50 (RXF 393 renal): 21.2 nM; TGI (RXF 393 renal): 139 nM; GI50 (ACHN renal): 47.5 nM; TGI (ACHN renal): 320 nM; GI50 (K-562 leukemia): 39.8 nM; TGI (K-562 leukemia): > 50000 nM; GI50 (HCT-15 colon): 233 nM; TGI (HCT-15 colon): > 20400 nM; GI50 (MCF7 breast): 31.1 nM; TGI (MCF7 breast): > 50000 nM; GI50 (HT29 colon): 13.6 nM; TGI (HT29 colon): 7780 nM; GI50 (OVCAR-5 ovarian): 8.49 nM; TGI (OVCAR-5 ovarian): > 50000 nM; GI50 (NCI-H460 lung): 13.7 nM; TGI (NCI-H460 lung): 8550 nM; GI50 (NCI/ADR-RES ovarian): 606 nM; TGI (NCI/ADR-RES ovarian): > 31600 nM; GI50 (SW-620 colon): 42.3 nM; TGI (SW-620 colon): 1900 nM; GI50 (KM12 colon): 25.3 nM; TGI (KM12 colon): 1610 nM; GI50 (M14 melanoma): 20.5 nM; TGI (M14 melanoma): > 50000 nM; GI50 (NCI-H226 lung): 86.1 nM; TGI (NCI-H226 lung): 2370 nM; GI50 (OVCAR-8 ovarian): 12.4 nM; TGI (OVCAR-8 ovarian): > 50000 nM; GI50 (A498 renal): 9.6 nM; TGI (A498 renal): 39.6 nM; GI50 (U251 CNS): 44.8 nM; TGI (U251 CNS): 472 nM; GI50 (PC-3 prostate): 14.2 nM; TGI (PC-3 prostate): > 50000 nM; GI50 (CAKI-1 renal): 125 nM; TGI (CAKI-1 renal): 394 nM; GI50 (SF-268 CNS): 42.2 nM; TGI (SF-268 CNS): 8340 nM; GI50 (HOP-62 NSCLC): 16.9 nM; GI50 (SN12C renal): 50.8 nM; TGI (SN12C renal): > 50000 nM; GI50 (HCC-2998 colon): 19.6 nM; TGI (HCC-2998 colon): 216 nM; GI50 (LOX IMVI melanoma): 27.7 nM; TGI (LOX IMVI melanoma): 103 nM; GI50 (UACC-62 melanoma): 9.17 nM; TGI (UACC-62 melanoma): 53.6 nM; GI50 (MALME-3M melanoma): 11.2 nM; TGI (MALME-3M melanoma): > 50000 nM; GI50 (MDA-MB-231 breast): 54 nM; TGI (MDA-MB-231 breast): 8130 nM; GI50 (MOLT-4 leukemia): 24.1 nM; TGI (MOLT-4 leukemia): 25700 nM
